From PMC10709440, “High-throughput ligand profile characterization in novel cell lines expressing seven heterologous insect olfactory receptors for the detection of volatile plant biomarkers” (Scientific Reports, 2023)
Like-named read-outs stand apart in the source and are kept apart here.

Columns and labels:
[1] = molecular target: T1, Drosophila OR10a (Drosophila melanogaster, UniProt Q9VYZ1); assay: Calcium ion fluorescence (GCaMP6) assay, OR10a stable HEK293 cell line; assay type: cell-based
T1 construct: expressed in transfected cells
T1 sequence (Q9VYZ1 1-406): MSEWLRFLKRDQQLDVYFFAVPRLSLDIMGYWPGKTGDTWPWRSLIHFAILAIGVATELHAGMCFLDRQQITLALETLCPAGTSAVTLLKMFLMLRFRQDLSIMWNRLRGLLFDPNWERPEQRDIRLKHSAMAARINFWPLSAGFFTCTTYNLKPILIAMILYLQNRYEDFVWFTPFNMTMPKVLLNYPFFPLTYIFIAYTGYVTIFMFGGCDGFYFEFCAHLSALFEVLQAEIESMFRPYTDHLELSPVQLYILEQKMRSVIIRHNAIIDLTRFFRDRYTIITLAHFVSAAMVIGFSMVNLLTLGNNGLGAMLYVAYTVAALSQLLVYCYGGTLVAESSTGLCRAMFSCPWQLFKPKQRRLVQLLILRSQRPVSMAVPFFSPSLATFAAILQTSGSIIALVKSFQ
T1 sequence (Q9VNB5 1-486 partner): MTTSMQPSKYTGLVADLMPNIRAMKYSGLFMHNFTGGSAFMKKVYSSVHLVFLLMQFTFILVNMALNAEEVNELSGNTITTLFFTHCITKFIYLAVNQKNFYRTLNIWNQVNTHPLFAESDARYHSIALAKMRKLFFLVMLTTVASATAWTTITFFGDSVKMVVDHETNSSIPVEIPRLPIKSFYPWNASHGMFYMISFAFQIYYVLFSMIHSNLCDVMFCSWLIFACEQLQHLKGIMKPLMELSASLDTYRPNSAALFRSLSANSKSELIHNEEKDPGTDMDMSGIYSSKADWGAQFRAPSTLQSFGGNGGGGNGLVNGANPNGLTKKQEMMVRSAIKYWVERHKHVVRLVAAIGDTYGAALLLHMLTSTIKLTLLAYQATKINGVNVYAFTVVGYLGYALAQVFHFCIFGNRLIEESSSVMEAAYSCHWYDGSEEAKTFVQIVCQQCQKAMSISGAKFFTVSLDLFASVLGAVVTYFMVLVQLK
Outline: (§1)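 Responses are VUAA1-normalized ΔF: each VOC-evoked calcium signal, (FMAX−F0)/F0 over 30 s after injection, divided by the same line's mean 50 µM VUAA1 response. Cells were doxycycline-induced HEK293 with GCaMP6 and the cognate Drosophila OR, in HEPES buffer pH 7.3; ligands tested 0.01–100 μM.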

[2] = molecular target: T2, Drosophila OR98a (Drosophila melanogaster, UniProt Q9VAZ3); assay: Calcium ion fluorescence (GCaMP6) assay, OR98a stable HEK293 cell line; assay type: cell-based
T2 construct: expressed in transfected cells
T2 sequence (Q9VAZ3 1-397): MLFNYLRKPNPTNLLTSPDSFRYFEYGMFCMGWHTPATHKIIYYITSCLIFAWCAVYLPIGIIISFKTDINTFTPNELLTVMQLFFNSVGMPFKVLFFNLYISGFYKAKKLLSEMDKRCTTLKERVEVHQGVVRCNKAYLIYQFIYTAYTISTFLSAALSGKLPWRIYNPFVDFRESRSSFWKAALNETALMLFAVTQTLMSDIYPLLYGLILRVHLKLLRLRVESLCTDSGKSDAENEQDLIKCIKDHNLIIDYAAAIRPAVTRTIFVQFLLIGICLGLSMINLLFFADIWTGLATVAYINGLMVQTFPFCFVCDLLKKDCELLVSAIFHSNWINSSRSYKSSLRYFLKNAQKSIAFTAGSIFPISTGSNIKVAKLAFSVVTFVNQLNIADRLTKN
T2 sequence (Q9VNB5 1-486 partner): T1 sequence (Q9VNB5 1-486 partner)
Outline: as §1

[3] = HEK293, 1 μM VOC, 50 μM VUAA1 = 1, responses not exceeding 0.05 considered 0, read-out: OR10a Average response (VUAA1-normalized)
[4] = HEK293, 10 μM VOC, 50 μM VUAA1 = 1, responses not exceeding 0.05 considered 0, read-out: OR10a Average response (VUAA1-normalized)
[5] = HEK293, 100 μM VOC, 50 μM VUAA1 = 1, responses not exceeding 0.05 considered 0, read-out: OR10a Average response (VUAA1-normalized)
[6] = HEK293, read-out: OR10a response (VUAA1-normalized response), VOC concentration 1 μM
[7] = HEK293, read-out: OR10a response (VUAA1-normalized response), VOC concentration 10 μM
[8] = HEK293, read-out: OR10a response (VUAA1-normalized response), VOC concentration 100 μM
[9] = concentration 10, normalized fluorescence change, values below 0.05 threshold given as 0
[10] = concentration 100, normalized fluorescence change, values below 0.05 threshold given as 0
[11] = HEK293, read-out: Average response
[12] = HEK293, read-out: OR98a Average response (VUAA1-normalized)
[13] = HEK293, read-out: OR98a response (VUAA1-normalized response)
[14] = concentration 1, normalized fluorescence change, values below 0.05 threshold given as 0
[15] = HEK293, read-out: OR10a Average response (VUAA1-normalized), 1 μM VOC, 50 μM VUAA1 = 1, responses not exceeding 0.05 considered 0
[16] = HEK293, read-out: OR10a Average response (VUAA1-normalized), 10 μM VOC, 50 μM VUAA1 = 1, responses not exceeding 0.05 considered 0
[17] = HEK293, read-out: OR10a Average response (VUAA1-normalized), 100 μM VOC, 50 μM VUAA1 = 1, responses not exceeding 0.05 considered 0
[18] = ligand concentration 1 (unit not given), threshold 0.05, below shown as 0
[19] = ligand concentration 10 (unit not given), threshold 0.05, below shown as 0
[20] = ligand concentration 100 (unit not given), threshold 0.05, below shown as 0
[21] = ligand concentration 1 (unit not given), 0.05 threshold, values below shown as 0
[22] = ligand concentration 10 (unit not given), 0.05 threshold, values below shown as 0
[23] = ligand concentration 100 (unit not given), 0.05 threshold, values below shown as 0

Row | SMILES | activation at 1 µM [1, 3] [%] | activation at 10 µM [1, 4] [%] | activation at 100 µM [1, 5] [%] | activation at 1 µM [1, 6] [%] | activation at 10 µM [1, 7] [%] | activation at 100 µM [1, 8] [%] | activation at 1 µM [2, 11] [%] | activation at 10 µM [2, 11] [%] | activation at 100 µM [2, 11] [%] | activation at 1 µM [2, 12] [%] | activation at 10 µM [2, 12] [%] | activation at 100 µM [2, 12] [%] | activation at 1 µM [2, 13] [%] | activation at 10 µM [2, 13] [%] | activation at 100 µM [2, 13] [%] | DF norm AVERAGE OR98a [2, 14] | DF norm AVERAGE OR98a [2, 9] | DF norm AVERAGE OR98a [2, 10] | activation at 1 µM [1, 15] [%] | activation at 10 µM [1, 16] [%] | other results
1 | CCCCCC(O)CC (stereo not drawn) [3-octanol] | 0 | 6 | 6 | 0 | 6 | 6 | 1.89 | 3.68 | 13 | 2 | 4 | 13 | 0 | 0 | 13 | 0 | 0 | 0.1274 |  |  | DF norm AVERAGE OR10a [1]: 0; DF norm AVERAGE OR10a [1, 9]: 0.05884; DF norm AVERAGE OR10a [1, 10]: 0.05921
2 | CC1=CCC2CC1C2(C)C (stereo not drawn) [alpha-pinene] |  |  |  | 0 | 0 | 7.44 | 0 | 0 | 0 |  |  |  | 0 | 0 | 0 |  |  |  | 5 | 0 | activation at 100 µM [1, 17]: 7.44%; DF norm AVERAGE OR10a [1, 18]: 0; DF norm AVERAGE OR10a [1, 19]: 0; DF norm AVERAGE OR10a [1, 20]: 0.07438; DF norm AVERAGE OR98a [2, 18]: 0; DF norm AVERAGE OR98a [2, 19]: 0; DF norm AVERAGE OR98a [2, 20]: 0
3 | C=Cc1ccccc1 [styrene] |  |  |  |  |  |  | 4.43 | 0 | 1.16 |  |  |  |  |  |  |  |  |  | 3 | 0 | activation at 100 µM [1, 17]: 14%; OR10a response (VUAA1-normalized) at 1 μM ([1]; OR10a cell line, VOC concentration 1 μM): 0.00; OR10a response (VUAA1-normalized) at 10 μM ([1]; OR10a cell line, VOC concentration 10 μM): 0.00; OR10a response (VUAA1-normalized) at 100 μM ([1]; OR10a cell line, VOC concentration 100 μM): 0.14; DF norm AVERAGE OR10a [1, 21]: 0; DF norm AVERAGE OR10a [1, 22]: 0; DF norm AVERAGE OR10a [1, 23]: 0.144; OR98a response (VUAA1-normalized) at 1 μM ([2]; OR98a cell line, VOC concentration 1 μM): 0.00; OR98a response (VUAA1-normalized) at 10 μM ([2]; OR98a cell line, VOC concentration 10 μM): 0.00; OR98a response (VUAA1-normalized) at 100 μM ([2]; OR98a cell line, VOC concentration 100 μM): 0.00; DF norm AVERAGE OR98a [2, 21]: 0; DF norm AVERAGE OR98a [2, 22]: 0; DF norm AVERAGE OR98a [2, 23]: 0
4 | CCCCCC(=O)CC [3-octanone] | 2 | 10 | 2.65 | 0 | 10 | 0 | 0 | 0 | 16 | 0 | 0 | 16 | 0 | 0 | 16 | 0 | 0 | 0.1573 |  |  | 
